How the values were obtained:
[1] = target: T1, Sodium-dependent dopamine transporter (Homo sapiens, UniProt Q01959); assay: Inhibition of DAT (unknown origin) assessed as reduction of [3H]-DA re-uptake
[2] = target: T1, Sodium-dependent dopamine transporter
Description: Binding affinity to DAT (unknown origin)

[3] = Ratio of drug uptake in Sprague-Dawley rat brain to plasma at 1 mg/kg, sc by HPLC analysis; assay type: ADME, organism-based; details: read-out: BPR
Rattus norvegicus [4] = assay: In vivo receptor occupancy at SERT in Sprague-Dawley rat at 0.1 mg/kg, sc measured at 1 to 8 hrs post dose; assay type: functional
Rattus norvegicus [5] = assay: In vivo receptor occupancy at NET in Sprague-Dawley rat at 0.1 mg/kg, sc measured at 1 to 8 hrs post dose; assay type: functional
Rattus norvegicus [6] = assay: In vivo receptor occupancy at DAT in Sprague-Dawley rat at 0.1 mg/kg, sc measured at 1 to 8 hrs post dose; assay type: functional
[7] = target: Sodium-dependent serotonin transporter (Homo sapiens, UniProt P31645)
Sodium-dependent serotonin transporter, sequence (P31645 whole entry): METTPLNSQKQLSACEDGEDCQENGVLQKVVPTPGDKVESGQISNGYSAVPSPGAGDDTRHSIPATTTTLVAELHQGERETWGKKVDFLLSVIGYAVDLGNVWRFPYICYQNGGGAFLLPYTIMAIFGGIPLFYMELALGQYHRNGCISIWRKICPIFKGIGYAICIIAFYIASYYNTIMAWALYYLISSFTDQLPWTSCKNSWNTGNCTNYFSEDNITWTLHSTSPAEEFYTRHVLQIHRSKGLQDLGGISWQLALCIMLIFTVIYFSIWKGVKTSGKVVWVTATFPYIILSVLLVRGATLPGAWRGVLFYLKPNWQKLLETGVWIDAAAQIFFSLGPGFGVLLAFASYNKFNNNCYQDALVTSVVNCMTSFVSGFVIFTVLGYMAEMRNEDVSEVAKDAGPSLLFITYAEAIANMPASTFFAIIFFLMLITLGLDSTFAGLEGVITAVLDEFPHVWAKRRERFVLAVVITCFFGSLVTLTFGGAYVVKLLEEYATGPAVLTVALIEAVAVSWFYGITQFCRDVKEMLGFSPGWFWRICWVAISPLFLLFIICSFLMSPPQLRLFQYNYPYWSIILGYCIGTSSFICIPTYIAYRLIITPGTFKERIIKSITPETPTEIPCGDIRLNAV
Description: Binding affinity to SERT (unknown origin)

[8] = target: Sodium-dependent noradrenaline transporter (Homo sapiens, UniProt P23975)
Sodium-dependent noradrenaline transporter, sequence (P23975 whole entry): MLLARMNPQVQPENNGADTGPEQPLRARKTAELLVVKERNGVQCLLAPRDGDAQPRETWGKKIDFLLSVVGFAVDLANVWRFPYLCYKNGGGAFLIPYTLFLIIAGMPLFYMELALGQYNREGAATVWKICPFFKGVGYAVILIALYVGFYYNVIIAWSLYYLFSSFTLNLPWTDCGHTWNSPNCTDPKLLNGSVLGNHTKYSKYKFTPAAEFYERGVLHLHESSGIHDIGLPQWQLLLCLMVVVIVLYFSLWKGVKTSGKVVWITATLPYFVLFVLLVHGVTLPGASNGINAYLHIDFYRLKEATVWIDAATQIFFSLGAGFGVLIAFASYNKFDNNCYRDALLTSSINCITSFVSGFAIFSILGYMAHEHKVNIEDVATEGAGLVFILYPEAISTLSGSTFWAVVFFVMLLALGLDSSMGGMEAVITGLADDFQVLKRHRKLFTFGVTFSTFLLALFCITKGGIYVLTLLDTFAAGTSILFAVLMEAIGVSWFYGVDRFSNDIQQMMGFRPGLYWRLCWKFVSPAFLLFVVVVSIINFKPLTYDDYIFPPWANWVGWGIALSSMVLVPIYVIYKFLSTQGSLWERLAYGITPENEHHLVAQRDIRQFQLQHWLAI
Description: Binding affinity to NET (unknown origin)

Rattus norvegicus [9] = assay: In vivo receptor occupancy at SERT in ip dosed rat brain measured 60 mins post dose; assay type: functional; details: 1 h
Rattus norvegicus [10] = assay: In vivo receptor occupancy at NET in ip dosed rat brain measured 60 mins post dose; assay type: functional; details: 1 h
Rattus norvegicus [11] = assay: In vivo receptor occupancy at DAT in ip dosed rat brain measured 60 mins post dose; assay type: functional; details: 1 h
Mus musculus [12] = assay: Reversal of motor depression in po dosed mouse measured at 3rd, 6th and 23rd hr followed by second administration on 24th hr administered as 4 injections for 4 consecutive days measured from day 3 to 10 days post last dose; assay type: functional; details: read-out: MED
Mus musculus [13] = assay: Reversal of ptosis in po dosed mouse measured at 3rd, 6th and 23rd hr followed by second administration on 24th hr administered as 4 injections for 4 consecutive days measured from day 3 to 10 days post last dose; assay type: functional

T1 sequence (Q01959 whole entry): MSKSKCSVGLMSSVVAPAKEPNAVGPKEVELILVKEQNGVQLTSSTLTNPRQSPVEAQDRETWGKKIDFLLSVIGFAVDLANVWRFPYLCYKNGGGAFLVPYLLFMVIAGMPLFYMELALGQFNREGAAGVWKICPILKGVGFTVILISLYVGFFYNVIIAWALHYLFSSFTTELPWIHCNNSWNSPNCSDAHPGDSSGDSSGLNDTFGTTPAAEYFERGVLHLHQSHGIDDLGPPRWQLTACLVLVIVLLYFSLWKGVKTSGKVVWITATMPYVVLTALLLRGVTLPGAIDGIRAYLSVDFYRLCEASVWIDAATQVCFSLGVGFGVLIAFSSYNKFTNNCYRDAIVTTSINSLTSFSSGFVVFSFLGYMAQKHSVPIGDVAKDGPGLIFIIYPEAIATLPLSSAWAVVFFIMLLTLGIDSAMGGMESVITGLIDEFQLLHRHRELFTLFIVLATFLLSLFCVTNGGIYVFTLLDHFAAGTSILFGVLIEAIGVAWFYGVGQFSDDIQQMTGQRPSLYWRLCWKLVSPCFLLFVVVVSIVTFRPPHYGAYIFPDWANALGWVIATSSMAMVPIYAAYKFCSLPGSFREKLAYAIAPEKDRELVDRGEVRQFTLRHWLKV

With `CNC[C@H]1C2CCC(C2)[C@@H]1c1ccc2ccccc2c1` (stereo partly drawn) as the molecule, how does the IC50 [1] read?
Its IC50 is 0.096 µM.

For `C#Cc1ccc(C2CN3CCCC3c3ccccc32)cc1` (racemic), which Ki [2] is on record?
Its Ki is 0.0052 µM.

And the Kp [3]?
The Kp was 7.5.

And the Occ (Rattus norvegicus [4])?
The Occ was 94%.

And the Occ (Rattus norvegicus [5])?
Its Occ is 95%.

What about the Occ (Rattus norvegicus [6]) of the same molecule?
Its Occ is 50%.

And the Ki [7]?
Its Ki is 0.0009 µM.

What about the Ki [8] of the same molecule?
Its Ki is 0.0166 µM.

For `Clc1ccc([C@]23CNC[C@H]2C3)cc1Cl` [AMITIFADINE], which ED50 (Rattus norvegicus [9]) is on record?
Its ED50 is 3 mg/kg.

And the ED50 (Rattus norvegicus [10])?
Its ED50 is 19 mg/kg.

And the ED50 (Rattus norvegicus [11])?
Its ED50 is 95 mg/kg.

And the minimal effective dose (Mus musculus [12])?
Its minimal effective dose is 1.6 mg/kg.

And the ED50 (Mus musculus [13])?
The ED50 was 2.2 mg/kg.
